Laboratory results published in patent publication US12419305B2, “Antimicrobial compositions” (Firmenich SA, priority 2018, dated 2025).

Key:
[1] = tested on: Salmonella enterica ATCC 10708; assay: BCT test (bacterial contact time), 60 s, log reduction / effect fraction; CI by Compusyn; assay type: cell-based; conditions: Salmonella enterica, ATCC10708, 1 min, BCT 60 s, in 25% EtOH
In short: (§1)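 Perfume ingredients, alone or combined, in ethanol were mixed 1:1 with ~1×10^8 CFU/mL log-phase bacteria in TSB for the stated contact time. Survivors were estimated by serial dilution and OD600 growth at 37 °C; log reduction versus ethanol control. CI from effect fractions via Compusyn (<0.9 synergy, >1.0 antagonism).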

[2] = tested on: Pseudomonas aeruginosa ATCC 15442; assay: as above; assay type: cell-based; conditions: Pseudomonas aeruginosa, ATCC15442, 1 min, BCT 60 s, in 25% EtOH; for log reduction at 0.3 % strength: Dose 0.3 % w/v; for log reduction at 0.4 % strength: Dose 0.4 % w/v
In short: as §1

[3] = tested on: S. haemolyticus 114126; assay: BCT test (bacterial contact time), 120 s, log reduction / effect fraction; CI by Compusyn; assay type: cell-based; conditions: Staphylococcus haemolyticus, 114126, 2 min, contact 120 s, 25% EtOH; for log reduction at 0.5 % strength: dose 0.5% w/v; for log reduction at 1 % strength: dose 1.0% w/v; for log reduction at 1.25 % strength: dose 1.25% w/v; for log reduction at 1.5 % strength: dose 1.5% w/v
Description: S. haemolyticus: Suspensions of the S. haemolyticus 114126 strain, isolated from skin, were prepared as follows: Stock cultures (stored at −80° C.) were thawed and sub-cultured onto TSA-TW80 agar plate media, and incubated at 37° C. for 24 h to obtain single colonies. Single colonies of the primary cultures were streaked onto fresh TSA-TW80 plates and incubated at 37° C. for 24 h to prepare secondary cultures. Single colonies of secondary cultures were picked and used to inoculate 50 mL of BHI-TW80 broth. The inoculated broth was incubated at 37° C. at 180 rpm for 18 h. Aliquots (0.5 ml) of the 18 h culture were inoculated into 50 ml of fresh BHI-TW80 broth, and incubated at 37° C. at 180 rpm for approximately 3 hours. When the OD 600 nm value of the broth reached 1-2, cells were harvested by centrifugation at 5000 rpm for 10 min, and then resuspended in fresh BHI-TW80 broth at a concentration of 1-5×10^8 CFU/mL. This suspension was used as the bacterial suspension for the BCT test.
(§2) BCT Test: Test compositions at a range of concentrations (either combinations of more than one perfume ingredient, and comparative compositions comprising the single perfume ingredients) were prepared in ethanol. Five replicates of each test composition were added into 96-well microtiter plates (120 μl per well), with row B containing control compositions containing the ethanol solution alone. 120 μl of bacterial cell suspensions at a concentration of approximately 1×10^8 bacteria per mL (as prepared above) were added to each well of the microtiter plate. The bacterial suspensions were incubated with the test solutions for 45, 60, or 120 seconds. Following the incubation of the bacterial suspensions with the test solutions, serial dilutions of the bacterial suspensions were generated (three serial 1:10 dilutions, followed by 17 serial 1:2 dilutions), in multiwell microtiter plates.
(§3) Each plate was sealed and incubated at 37° C. under agitation (180 rpm). After incubation, the turbidity of the wells (OD600 nm) was determined using a Tecan microplate reader. Turbid wells were regarded as positive growth, due to the presence of viable cells. The total number of viable cells (log CFU) for each sample was calculated. And the log reduction for each test composition at the final concentration (dose) was calculated against the control sample of the ethanol solution.
(§4) Determination of Synergy via the Combination Index (CI): The CI was calculated using Compusyn software (ComboSyn, Inc., as created by Dr. Dorothy Chou in 2005), according to the manufacturer's instructions. The concentration of each test composition (combinations of more than one perfume ingredient, and comparative compositions comprising the single perfume ingredients used to generate the combination) and their corresponding effect fraction was entered, and the corresponding CI calculated.
(§5) When the calculated CI values were less than 0.9, the combination of perfume ingredients was regarded as having synergistic effect. When the calculated CI was between 1.0 a 0.9, the combination of perfume ingredients was regarded as having an additive effect. When the calculated CI was greater than 1.0, the combination of perfume ingredients was regarded as having an antagonistic effect.

[4] = tested on: C. xerosis ATCC 373; assay: as above; assay type: cell-based; conditions: Corynebacterium xerosis, ATCC373, 2 min, contact 120 s, 25% EtOH
Description: C. xerosis: Suspensions of the C. xerosis ATCC 373 strain were prepared as follows: Stock cultures (stored at −80° C.) were thawed and subcultured onto Tryptic Soy Agar media with Tween 80 (TSA-TW80), and incubated at 37° C. for 48 h. The primary cultures were subcultured onto TSA-TW80 again, to prepare the secondary cultures. Single colonies of the secondary cultures were selected and used to inoculate 30 ml brain heart infusion broth with Tween 80 (BHI-TW80). The inoculated broth was incubated at 37° C. at 180 rpm for 24 h. Aliquots (1 ml) of the 24 h culture were inoculated into 30 ml of fresh BHI-TW80 broth media, and incubated at 37° C. at 180 rpm for 48 h. Aliquots (2-3 ml) of the 48 h culture were inoculated into four 50 ml of fresh BHI-TW80 broth media, and incubated at 37° C. 180 rpm for 4-6 hrs. When the OD 600 nm reached the target value of 1.6, cells were harvested by centrifugation at 5000 rpm for 10 min, and then resuspended in the same fresh BHI-TW80 at a concentration of 10^9 to 10^10 cfu/mL. This suspension was used as the bacterial suspension for the BCT test.
as §2, §3, §4, §5

[5] = tested on: S. aureus ATCC 6538; assay: BCT test (bacterial contact time), 60 s, log reduction / effect fraction; CI by Compusyn; assay type: cell-based, Staphylococcus aureus; conditions: Staphylococcus aureus, ATCC6538, 1 min, 60 s, in 25% EtOH; for log reduction at 0.5 % strength: dose 0.500 % w/v
In short: as §1

[6] = dose 0.25% w/v, read-out: Log reduction

`OC/C=C/c1ccccc1` [Cinnamic alcohol, (2E)-3-phenyl-2-propen-1-ol] was tested, and the log reduction at 0.15 % strength ([1]; Dose 0.15 % w/v) was 0.5, the log reduction at 0.175 % strength ([1]; Dose 0.175 % w/v) was 1 and the log reduction at 0.2 % strength ([1]; Dose 0.2 % w/v) was 1.5. It also gave a log reduction at 0.25 % strength ([1]; Dose 0.25 % w/v) of 4.9, a log reduction at 0.3 % strength ([1]; Dose 0.3 % w/v) of 7.8 and a log reduction at 0.25 % strength ([2]; Dose 0.25 % w/v, read-out: Log reduction) of 4.1. The log reduction at 0.3 % strength ([2]; read-out: Log reduction) was 6.7, the log reduction at 0.4 % strength ([2]; read-out: Log reduction) was 7.5 and the log reduction at 0.25 % strength [3, 6] was 0.2. It also gave a log reduction at 0.5 % strength [3] of 4.1, a log reduction at 1 % strength [3] of 7.3 and a log reduction at 1.25 % strength [3] of 7.3. It also gave a log reduction at 1.5 % strength [3] of 7.3, a log reduction at 0.25 % strength [4, 6] of 0 and a log reduction at 0.5 % strength ([4]; dose 0.5% w/v) of 2.9. The log reduction at 0.6 % strength ([4]; dose 0.6% w/v) was 4.3, the log reduction at 0.7 % strength ([4]; dose 0.7% w/v) was 6 and the log reduction at 0.8 % strength ([4]; dose 0.8% w/v) was 7.2. It also gave a log reduction at 0.3 % strength ([5]; dose 0.300 % w/v, read-out: Log reduction) of 1.8, a log reduction at 0.35 % strength ([5]; dose 0.350 % w/v, read-out: Log reduction) of 2.6 and a log reduction at 0.4 % strength ([5]; dose 0.400 % w/v, read-out: Log reduction) of 5.5. It also gave a log reduction at 0.45 % strength ([5]; dose 0.45 % w/v) of 6.9 and a log reduction at 0.5 % strength ([5]; read-out: Log reduction) of 6.9.

`O=c1ccc2ccccc2o1` [Coumarine, 2H-chromen-2-one] gave a log reduction at 0.3 % strength ([1]; Dose 0.300 % w/v) of 0.2, a log reduction at 0.4 % strength ([1]; Dose 0.400 % w/v) of 3 and a log reduction at 0.45 % strength ([1]; Dose 0.450 % w/v) of 5.1. It also gave a log reduction at 0.5 % strength ([1]; Dose 0.500 % w/v) of 7.5, a log reduction at 0.6 % strength ([1]; Dose 0.600 % w/v) of 7.5 and a log reduction at 0.3 % strength ([2]; read-out: Log reduction) of 0.4. The log reduction at 0.35 % strength ([2]; Dose 0.35 % w/v) was 0.4, the log reduction at 0.4 % strength ([2]; read-out: Log reduction) was 0.7 and the log reduction at 0.45 % strength ([2]; Dose 0.45 % w/v, read-out: Log reduction) was 1.2. The log reduction at 0.5 % strength ([2]; Dose 0.5 % w/v) was 2.9, the log reduction at 0.5 % strength [3] was 0 and the log reduction at 0.75 % strength ([3]; dose 0.75% w/v) was 0.7. It also gave a log reduction at 1 % strength [3] of 1.7, a log reduction at 1.25 % strength [3] of 6.3 and a log reduction at 1.5 % strength [3] of 7.5. For the same compound, the log reduction at 0.75 % strength ([4]; dose 0.75% w/v) was -0.2, the log reduction at 1 % strength ([4]; dose 1.0% w/v) was 0.8 and the log reduction at 1.25 % strength ([4]; dose 1.25% w/v) was 2.6. It also gave a log reduction at 1.5 % strength ([4]; dose 1.5% w/v) of 2.7, a log reduction at 0.5 % strength ([5]; read-out: Log reduction) of -0.1 and a log reduction at 0.75 % strength ([5]; dose 0.750 % w/v, read-out: Log reduction) of 0.4. The log reduction at 0.875 % strength ([5]; dose 0.875 % w/v) was 0.8, the log reduction at 1 % strength ([5]; dose 1.000 % w/v, read-out: Log reduction) was 2.1 and the log reduction at 1.25 % strength ([5]; dose 1.250 % w/v) was 7.
